# Experimental data as given in article PMC9698773, “Design, Synthesis, Molecular Modeling, and Anticancer Evaluation of New VEGFR-2 Inhibitors Based on the Indolin-2-One Scaffold” (Pharmaceuticals, 2022).
# Several values for one entry are separate records, joined by “and”; a condition that tells them apart may be missing. Equal values may be shown once.
# Tests used:
# [1] = target: VEGFR-2 (Homo sapiens, UniProt P35968); test: In vitro VEGFR-2 kinase inhibitory assay (VEGFR2 (KDR) Kinase Assay Kit)
# Sequence of VEGFR-2 (P35968 20-1356): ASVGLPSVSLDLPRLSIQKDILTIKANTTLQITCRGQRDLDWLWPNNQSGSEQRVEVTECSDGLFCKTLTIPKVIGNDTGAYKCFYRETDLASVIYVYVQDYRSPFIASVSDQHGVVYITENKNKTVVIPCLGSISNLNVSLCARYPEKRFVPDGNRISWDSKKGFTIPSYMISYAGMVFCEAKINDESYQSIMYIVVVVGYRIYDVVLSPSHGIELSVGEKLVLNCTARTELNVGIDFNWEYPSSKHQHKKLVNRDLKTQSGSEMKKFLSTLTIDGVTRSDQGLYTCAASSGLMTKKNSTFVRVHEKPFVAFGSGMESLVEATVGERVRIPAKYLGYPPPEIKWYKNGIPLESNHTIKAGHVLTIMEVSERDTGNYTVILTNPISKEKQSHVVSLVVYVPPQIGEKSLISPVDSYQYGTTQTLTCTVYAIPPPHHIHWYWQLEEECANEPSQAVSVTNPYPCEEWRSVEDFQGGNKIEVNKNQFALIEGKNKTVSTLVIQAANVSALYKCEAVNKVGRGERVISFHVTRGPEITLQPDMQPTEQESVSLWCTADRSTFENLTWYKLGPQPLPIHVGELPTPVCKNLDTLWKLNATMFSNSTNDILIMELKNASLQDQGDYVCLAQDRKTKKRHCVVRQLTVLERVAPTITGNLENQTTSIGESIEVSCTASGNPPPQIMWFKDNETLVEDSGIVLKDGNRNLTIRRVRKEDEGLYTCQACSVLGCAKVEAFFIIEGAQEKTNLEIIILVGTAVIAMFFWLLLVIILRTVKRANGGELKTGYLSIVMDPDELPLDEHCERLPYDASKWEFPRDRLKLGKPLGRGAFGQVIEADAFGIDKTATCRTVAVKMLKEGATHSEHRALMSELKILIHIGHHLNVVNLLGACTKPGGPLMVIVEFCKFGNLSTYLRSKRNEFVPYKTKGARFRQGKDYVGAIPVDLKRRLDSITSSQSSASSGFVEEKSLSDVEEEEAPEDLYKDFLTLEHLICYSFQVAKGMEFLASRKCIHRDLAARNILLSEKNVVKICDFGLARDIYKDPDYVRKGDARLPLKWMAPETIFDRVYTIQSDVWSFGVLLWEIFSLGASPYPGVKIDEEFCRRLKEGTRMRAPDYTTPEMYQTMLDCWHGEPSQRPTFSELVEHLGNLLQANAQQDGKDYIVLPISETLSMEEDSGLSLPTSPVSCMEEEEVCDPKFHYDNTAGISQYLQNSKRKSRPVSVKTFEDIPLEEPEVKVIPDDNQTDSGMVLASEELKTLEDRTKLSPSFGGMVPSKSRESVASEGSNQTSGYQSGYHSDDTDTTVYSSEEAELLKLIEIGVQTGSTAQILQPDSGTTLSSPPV
# Protocol: In vitro VEGFR‐2 kinase inhibitory assay
# for their inhibitory activity against VEGFR‐2. Human BPS bioscience® VEGFR2 (KDR) Ki‐ nase Assay Kit (Enzyme‐Linked Immunosorbent Assay) was utilized in this test. The lu‐ minescent signal from the assay is correlated with the amount of ATP present and is in‐ versely correlated with the amount of kinase activity. The compounds were diluted to 100 μM in 10% DMSO and 5 ml of the diluted solution was added to a 50 ml reaction so that the final concentration of DMSO was 1% in all of reactions. All of the enzymatic reactions were conducted at 30 °C for 40 min. The 50 μl reaction mixture contains 40 μM Tris, pH 7.4, 10 μM MgCl2, 0.1 mg/ml BSA, 0.2 mg/ml Poly (Glu, Tyr) substrate, 10 μM ATP, and VEGFR‐2. After the enzymatic reaction, 50 ml of Kinase‐GloPlus Luminescence kinase as‐ say solution (Promega) was added to each reaction and the plate was incubated for 5 min at room temperature. Luminescence signal was measured using a BioTek Synergy 2 mi‐ croplate reader. The protein kinase assays used to determine IC50 values were performed using a ADP‐GloTM assay kit from Promega, which measures the generation of ADP by the protein kinase. Generation of ADP by the protein kinase reaction leads to an increase in luminescence signal in the presence of the ADP‐GloTM assay kit. The assay was started by incubating the reaction mixture in a 96‐well plate at 30 °C for 30 min. After the 30 mi n incubation period, the assay was terminated by the addition of 25 ml of ADP‐GloTM Re‐ agent (Promega). The 96‐well plate was shaken and then incubated for 40 min at ambient temperature; 50 ml of Kinase detection reagent was added, the 96‐well reaction plate wa s then read using the ADP‐Glo Luminescences Protocol on a GloMax plate reader (Promega: Catalog #E7031). The blank control was set up which included all the assay components, except the addition of appropriate substrates (replaced with equal volume of kinase assay buffer). The corrected activity for each protein kinase target was deter‐ mined by removing the blank control value. IC50 determination for inhibitor against VEGFR‐2 was estimated by generating a graph of log inhibitor vs normalized response with variables.
# [2] = system: caspase-3; test: Caspase-3 expression assay (quantitative real-time PCR); format: cell-based, human; conditions: HepG2, 1.13 µM, 24 h; control = 1
# Protocol: (§1) The gene expression fold change of caspase-3 and -9 in the HepG2 cells treated with 1.13 µM of compound 17a for 24 h was determined using quantitative real-time PCR analysis.
# (§2) The expression of caspase-3 and -9 in the liver HepG2 cells treated with 1.13 μM of 17a was determined using quantitative real-time PCR analysis, as presented in the Supplementary Materials.
# (§3) Pharmaceuticals 2022, 15, x FOR PEER REVIEW 3 of 22
# (§4) Figure S1. Simple linear regression for the correlation between cytotoxicity against HepG2 cell line […]
# (§5) Figure S2. Simple linear regression for the correlation between cytotoxicity against MCF‐7 cell line […]
# (§6) 4.2.3. Cell cycle analysis
# (§7) To determine the role of the synthesized compounds in cell cycle distribution, cell cycle analysis was performed using propidium iodide (PI) staining and flow cytometry analysis for compound 17a. […] The stained cells were measured using a BD FACSCalibur™ Flow Cytometer, and the data were analyzed using Flowing software (version 2.5.1, Turku Centre for Biotech‐ […]
# (§8) Flow cytometry cell apoptosis analysis was used to investigate the apoptotic effect of the synthesized compounds. […] The stained cells were measured using a BD FACSCalibur™ Flow Cytometer and analyzed using Flowing software. […]
# (§9) The expression of BAX and Bcl‐2 proteins were determined using Western blot anal‐ ysis. […]
# [3] = system: caspase-9; test: Caspase-9 expression assay (quantitative real-time PCR); format: cell-based, human; conditions: HepG2, 1.13 µM, 24 h; control = 1
# Protocol: as §1, §2, §3, §4, §5, §6, §7, §8, §9
# [4] = system: HepG2 cells; test: Apoptosis analysis (Annexin V-FITC/PI, flow cytometry); format: cell-based, human; conditions: HepG2, 1.13 µM, 24 h
# Protocol: The HepG2 cells were treated with 17a (1.13 µM for 24 h), and the apoptotic effect was determined using Annexin V-FITC/PI assay. […] In addition, 17a enhanced the necrosis percentage 4-fold more than the control.
# The apoptotic ability of compound 17a to the HepG2 cells was assessed using Annexin V-FITC/PI dual staining by flow cytometric analysis, as shown in the Supplementary Materials. […]
# 4.2.3. Cell cycle analysis […]
# 4.2.4. Apoptosis analysis
# Flow cytometry cell apoptosis analysis was used to investigate the apoptotic effect of the synthesized compounds. HepG2 cells were treated with compound 17a (1.13 μM) for 24 h, collected by trypsin, centrifuged, washed two successive times with PBS, suspended in 500 μL binding buffer, and double stained with 5 μL Annexin V‐FITC and 5 μL PI in the dark at room temperature for 15 min. The stained cells were measured using a BD FACSCalibur™ Flow Cytometer and analyzed using Flowing software. […]
compound,measurement,setting,value
"O=C1Nc2ccccc2C1=Nc1ccc(C(=O)NNC(=S)Nc2ccccc2)cc1 [Compound 17a, 2-(4-((2-Oxoindolin-3-ylidene)amino)benzoyl)-N-phenylhydrazinecarbothioamide]",IC50,[1],78 ± 3 nM
same,"fold more potent than sunitinib, VEGFR-2 inhibition",[1]; ratio of IC50 to sunitinib,1.78 fold
same,Gene Expression Fold Change (Normalized to β-Actin) Caspases-3,[2],6.88 fold and 6.9 fold and 6.889 fold
same,Gene Expression Fold Change (Normalized to β-Actin) Caspases-9,[3],3.7 fold and 3.703 fold
same,Apoptosis Early,[4],33.86%
same,Apoptosis Late,[4],7.99%
same,Apoptosis Total,[4],46.38%
same,Necrosis,[4],4.53%
same,increase of necrosis percentage versus control,[4],4 fold
